From US20220062240A1, “METHODS OF TREATING CANCER USING A CLK INHIBITOR” (BioSplice Therapeutics, Inc., priority 2018, published 2022)
Where two headings read alike, the source gives them in different places.

Columns and labels:
Type in all cases: cell-based
[1] = test system: lung cancer (4 cell lines); test: CellTiter-Glo Viability Assay, lung cancer; details: Homo sapiens, inhibition of cancer cell proliferation
[2] = test system: ovarian cancer (4 cell lines); test: CellTiter-Glo Viability Assay, ovarian cancer; details: Homo sapiens, inhibition of cancer cell proliferation
[3] = test system: haematopoietic & lymphoid tumors (13 cell lines); test: CellTiter-Glo Viability Assay, haematopoietic & lymphoid tumors; details: Homo sapiens, inhibition of cancer cell proliferation
all 50 cell lines = test: CellTiter-Glo Viability Assay, average across all cell lines; details: Homo sapiens; across all 50 cell lines; read-out: average EC50 for inhibition of cancer cell proliferation
Method in brief: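 4-day proliferation, 37° C/5% CO2; 300-3,000 cells/well; compound in duplicate vs DMSO controls. Panel: breast, colorectal, heme/lymphoid, liver, lung, ovarian, pancreatic, prostate lines. Read-out: CellTiter-Glo ATP luminescence, EC50 from dose-response.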

[4] = test system: prostate cancer (5 cell lines); test: CellTiter-Glo Viability Assay, prostate cancer; details: Homo sapiens
[5] = test system: pancreatic cancer (8 cell lines); test: CellTiter-Glo Viability Assay, pancreatic cancer; details: Homo sapiens, inhibition of cancer cell proliferation
[6] = test system: liver cancer (3 cell lines); test: CellTiter-Glo Viability Assay, liver cancer; details: Homo sapiens, inhibition of cancer cell proliferation
BT-549 = test: CellTiter-Glo Viability Assay, breast cancer; details: Homo sapiens, 96 h; BT-549, breast cancer, four days; read-out: EC50
CAMA1 = test: CellTiter-Glo Viability Assay, breast cancer; details: Homo sapiens, CAMA-1, 96 h; CAMA1, breast cancer, four days; read-out: EC50
DU4475 = test: CellTiter-Glo Viability Assay, breast cancer; details: Homo sapiens, DU-4475, 96 h; DU4475, breast cancer, four days; read-out: EC50
ZR-75-1 = test: CellTiter-Glo Viability Assay, breast cancer; details: Homo sapiens, 96 h; ZR-75-1, breast cancer, four days; read-out: EC50
T47D = test: CellTiter-Glo Viability Assay, breast cancer; details: Homo sapiens, 96 h, breast cancer, four days, read-out: EC50
MCF7 = test: CellTiter-Glo Viability Assay, breast cancer; details: Homo sapiens, 96 h; MCF7, breast cancer, four days; read-out: EC50
HCC1599 = test: CellTiter-Glo Viability Assay, breast cancer; details: Homo sapiens, 96 h; HCC1599, breast cancer, four days; read-out: EC50
MDA-MB-231-Luc = test: CellTiter-Glo Viability Assay, breast cancer; details: Homo sapiens, 96 h; MDA-MB-231-Luc, breast cancer, four days; read-out: EC50
[7] = test system: colorectal cancer (6 cell lines); test: CellTiter-Glo Viability Assay, colorectal cancer; details: Homo sapiens, inhibition of cancer cell proliferation
[8] = A-427, A427 cell line, read-out: Lung cancer, EC50 (μM) A427
[9] = HCC78, HCC-78 cell line, read-out: Lung cancer, EC50 (μM) HCC-78
[10] = NCI-H460 cell line, read-out: Lung cancer, EC50 (μM) NCI-H460
[11] = NCI-H522 cell line, read-out: Lung cancer, EC50 (μM) NCI-H522
[12] = PA-1, PA1 cell line, read-out: Ovarian cancer, EC50 (μM) PA1
[13] = TOV112D, TOV-112D cell line, read-out: Ovarian cancer, EC50 (μM) TOV-112D
[14] = OV-90 cell line, read-out: Ovarian cancer, EC50 (μM) OV-90
[15] = OVCAR-3 cell line, read-out: Ovarian cancer, EC50 (μM) OVCAR-3
[16] = DND41, DND-41 cell line, read-out: Haematopoietic & Lymphoid tumors, EC50 (μM) DND-41
[17] = MV4-11, MV-4-11 cell line, read-out: Haematopoietic & Lymphoid tumors, EC50 (μM) MV-4-11
[18] = Rec1, REC-1 cell line, read-out: Haematopoietic & Lymphoid tumors, EC50 (μM) REC-1
[19] = SU-DHL-4, SUDHL4 cell line, read-out: Haematopoietic & Lymphoid tumors, EC50 (μM) SUDHL4
[20] = HL-60 cell line, read-out: Haematopoietic & Lymphoid tumors, EC50 (μM) HL-60
[21] = JM1 cell line, read-out: Haematopoietic & Lymphoid tumors, EC50 (μM) JM1
[22] = JURKAT, Clone E6-1 cell line, read-out: Haematopoietic & Lymphoid tumors, EC50 (μM) JURKAT, Clone E6-1
[23] = JeKo-1 cell line, read-out: Haematopoietic & Lymphoid tumors, EC50 (μM) JeKo-1
[24] = KASUMI-1 cell line, read-out: Haematopoietic & Lymphoid tumors, EC50 (μM) KASUMI-1
[25] = Loucy cell line, read-out: Haematopoietic & Lymphoid tumors, EC50 (μM) Loucy
[26] = MOLT-4 cell line, read-out: Haematopoietic & Lymphoid tumors, EC50 (μM) MOLT-4
[27] = TF-1 cell line, read-out: Haematopoietic & Lymphoid tumors, EC50 (μM) TF-1
[28] = TOLEDO cell line, read-out: Haematopoietic & Lymphoid tumors, EC50 (μM) TOLEDO
[29] = DU-145, read-out: Prostate cancer EC50 Du-145
[30] = PC-3, PC3 cell line, inhibition of cancer cell proliferation, read-out: Prostate cancer EC50 PC3
[31] = 22Rv1 cell line, inhibition of cancer cell proliferation, read-out: Prostate cancer EC50 22Rv1
[32] = LNCap clone FGC cell line, inhibition of cancer cell proliferation, read-out: Prostate cancer EC50 LNCap clone FGC
[33] = VCaP (Sigma) cell line, inhibition of cancer cell proliferation, read-out: Prostate cancer EC50 VCaP (Sigma)
[34] = BXPC-3, BxPC3 cell line, read-out: Pancreatic cancer, EC50 BxPC3
[35] = CAPAN-1, Capan1 cell line, read-out: Pancreatic cancer, EC50 Capan1
[36] = Capan-2, Capan2 cell line, read-out: Pancreatic cancer, EC50 Capan2
[37] = MIA PaCa-2 cell line, read-out: Pancreatic cancer, EC50 MIA PaCa-2
[38] = PANC 05.04 cell line, read-out: Pancreatic cancer, EC50 PANC 05.04
[39] = PANC-1 cell line, read-out: Pancreatic cancer, EC50 PANC-1
[40] = UPAFII cell line, read-out: Pancreatic cancer, EC50 UPAFII
[41] = SNU-398, SNU398 cell line, read-out: Liver cancer, EC50 SNU398
[42] = HEPG2 cell line, read-out: Liver cancer, EC50 HEPG2
[43] = PLC/PRF/5 cell line, read-out: Liver cancer, EC50 PLC/PRF/5
[44] = SW480 cell line, read-out: Colorectal cancer, EC50 (μM) SW480

`Cc1n[nH]c2ccc(-c3cncc(N[C@H]4CC[C@H](O)CC4)n3)cc12` [Compound 65] gave an EC50 [1, 8] of 0.26 µM, an EC50 [1, 9] of 1.19 µM and an EC50 [1, 10] of 0.81 µM. For the same compound, the EC50 [1, 11] was 0.379 µM, the EC50 [2, 12] was 0.146 µM and the EC50 [2, 13] was 0.437 µM. For the same compound, the EC50 [2, 14] was 0.918 µM, the EC50 [2, 15] was 0.645 µM and the EC50 [3, 16] was 0.635 µM. For the same compound, the EC50 [3, 17] was 0.008 µM, the EC50 [3, 18] was 0.085 µM and the EC50 [3, 19] was 0.309 µM. It also gave an EC50 [3, 20] of 1.01 µM, an EC50 [3, 21] of 0.319 µM and an EC50 [3, 22] of 0.78 µM. For the same compound, the EC50 [3, 23] was 0.243 µM, the EC50 [3, 24] was 0.184 µM and the EC50 [3, 25] was 0.576 µM. The EC50 [3, 26] was 0.715 µM, the EC50 [3, 27] was 0.392 µM and the EC50 [3, 28] was 0.141 µM. The EC50 (all 50 cell lines) was 615 nM, the EC50 [4, 29] was 665 nM and the EC50 [4, 30] was 557 nM. The EC50 [4, 31] was 803 nM, the EC50 [4, 32] was 508 nM and the EC50 [4, 33] was 2940 nM. For the same compound, the EC50 [5, 34] was 678 nM, the EC50 [5, 35] was 353 nM and the EC50 [5, 36] was 760 nM. It also gave an EC50 [5, 37] of 539 nM, an EC50 [5, 38] of 1280 nM and an EC50 [5, 39] of 1490 nM. The EC50 [5, 40] was 594 nM, the EC50 [6, 41] was 132 nM and the EC50 [6, 42] was 667 nM. For the same compound, the EC50 [6, 43] was 1260 nM, the EC50 (BT-549) was 414 nM and the EC50 (CAMA1) was 457 nM. The EC50 (DU4475) was 114 nM, the EC50 (ZR-75-1) was 617 nM and the EC50 (T47D) was 886 nM. It also gave an EC50 (MCF7) of 989 nM, an EC50 (HCC1599) of 209 nM and an EC50 (MDA-MB-231-Luc) of 106 nM. For the same compound, the EC50 [7, 44] was 0.456 µM.

Work on `CN1CCN(c2cc(C(=O)Nc3cc4cc(-c5cnn(C)c5N)ccc4cn3)ccn2)CC1` [Compound 75] yielded an EC50 [1, 8] of 0.114 µM, an EC50 [1, 9] of 0.19 µM and an EC50 [1, 10] of 0.196 µM. It also gave an EC50 [1, 11] of 0.079 µM, an EC50 [2, 12] of 0.12 µM and an EC50 [2, 13] of 0.108 µM. The EC50 [2, 14] was 0.256 µM, the EC50 [2, 15] was 0.067 µM and the EC50 [3, 16] was 0.154 µM. The EC50 [3, 17] was 0.042 µM, the EC50 [3, 18] was 0.045 µM and the EC50 [3, 19] was 0.155 µM. It also gave an EC50 [3, 20] of 0.449 µM, an EC50 [3, 21] of 0.044 µM and an EC50 [3, 22] of 0.333 µM. The EC50 [3, 23] was 0.046 µM, the EC50 [3, 24] was 0.119 µM and the EC50 [3, 25] was 0.142 µM. The EC50 [3, 26] was 0.162 µM, the EC50 [3, 27] was 0.225 µM and the EC50 [3, 28] was 0.046 µM. It also gave an EC50 (all 50 cell lines) of 167 nM, an EC50 [4, 29] of 208 nM and an EC50 [4, 30] of 159 nM. For the same compound, the EC50 [4, 31] was 113 nM, the EC50 [4, 32] was 305 nM and the EC50 [4, 33] was 333 nM. It also gave an EC50 [5, 34] of 284 nM, an EC50 [5, 35] of 152 nM and an EC50 [5, 36] of 289 nM. The EC50 [5, 37] was 84 nM, the EC50 [5, 38] was 138 nM and the EC50 [5, 39] was 251 nM. For the same compound, the EC50 [5, 40] was 83 nM, the EC50 [6, 41] was 34 nM and the EC50 [6, 42] was 130 nM. It also gave an EC50 [6, 43] of 301 nM, an EC50 (BT-549) of 169 nM and an EC50 (CAMA1) of 216 nM. The EC50 (DU4475) was 123 nM, the EC50 (ZR-75-1) was 177 nM and the EC50 (T47D) was 246 nM. It also gave an EC50 (MCF7) of 483 nM, an EC50 (HCC1599) of 91 nM and an EC50 (MDA-MB-231-Luc) of 188 nM. It also gave an EC50 ([7]; HCT-116, HCT116 cell line, read-out: Colorectal cancer, EC50 (μM) HCT116) of 0.102 µM, an EC50 ([7]; HT-29, HT29 cell line, read-out: Colorectal cancer, EC50 (μM) HT29) of 0.187 µM and an EC50 ([7]; SW-620, SW620 cell line, read-out: Colorectal cancer, EC50 (μM) SW620) of 0.067 µM. It also gave an EC50 ([7]; DLD-1 cell line, read-out: Colorectal cancer, EC50 (μM) DLD-1) of 0.141 µM, an EC50 ([7]; SW48 cell line, read-out: Colorectal cancer, EC50 (μM) SW48) of 0.051 µM and an EC50 [7, 44] of 0.143 µM.
